Where two headings read alike, the source gives them in different places.
Tests used:
[1] = test system: influenza A virus (A/PR/8/34); test: microbe, parasite or virus in culture; assay type: cell-based
influenza [2] = test: In vivo prophylaxis study (FIG. 1), survival of infected mice; parameters: species or system Balb/c mice; conditions: 100 mg/kg oral gavage, first dose 2 hours prior to infection, twice daily for 5 days, survival monitored 21 days, P<0.0001 vs vehicle
[3] = test system: A/PR/8/34 influenza virus; test: microbe, parasite or virus in culture; assay type: cell-based
influenza [4] = test: Influenza Therapeutic Mouse Model (Table 6); assay type: in vivo, mice; conditions: dosing @ 48 hours post infection with 30 mg/kg BID X 10 days
influenza [5] = test: In vivo treatment study (FIG. 2), survival of infected mice; parameters: species or system Balb/c mice; conditions: 200 mg/kg oral gavage from 24 hours post infection, twice daily for 10 days, survival monitored 21 days, P<0.0001 vs vehicle
[6] = Influenza A virus, PR/8, MDCK, MDCK cells infected with A/PR/8/34, survival of infected cells, class symbols, read-out: IC50 (mean all)
[7] = Influenza A virus, PR/8, MDCK, MDCK cells infected with A/PR/8/34, replication of influenza virus (viral RNA, bDNA), class symbols, read-out: EC50 (mean all)
[8] = Influenza A virus, PR/8, MDCK, mean all, survival of A/PR/8/34 infected MDCK cells (CPE assay), read-out: IC50
[9] = Influenza A virus, PR/8, mean all, replication of A/PR/8/34 influenza virus (bDNA assay), read-out: EC50
[10] = mean all, A/PR/8/34 influenza virus in MDCK cells, bDNA assay, read-out: EC50

With COC(=O)N[C@H]1CCC[C@@H](Nc2nc(-c3c[nH]c4ncc(Cl)cc34)ncc2F)C1 (relative stereo) [Compound 514, Methyl-cis-3-[[2-(5-chloro-1H-pyrrolo[2,3-b]pyridin-3-yl)-5-fluoro-pyrimidin-4-yl]amino]cyclohexylcarbamate] the IC50 [1, 6] was less than 5 µM, the survival (influenza [2]) was “complete survival” and the EC50 [3, 7] was less than 5 µM.

With C[C@H]1NC(=O)O[C@]12CCC[C@H](Nc1nc(-c3c[nH]c4ncc(F)cc34)ncc1F)C2 (single isomer, unassigned) [Compound 967] the “Percent Survival” value (influenza [4]) was 75%, the “Percent Weight Loss (Day 8)” value (influenza [4]) was 30.9% and the IC50 [1, 8] was less than 5 µM. For the same compound, the EC50 [3, 9] was less than 5 µM.

With OC[C@H](O)CN1CCCC(Nc2nc(-c3c[nH]c4ncc(Cl)cc34)ncc2F)C1 (some centres unmarked) [Compound 588] the IC50 [1, 6] was less than 5 µM, the EC50 [3, 7] was less than 5 µM and the survival (influenza [5]) was “complete survival”.

For O=C(N[C@@H]1CCC[C@H](Nc2nc(-c3c[nH]c4ncc(F)cc34)ncc2F)C1)N1CCOCC1 [Compound 706, N-[(1R,3S)-3-[[5-fluoro-2-(5-fluoro-1H-pyrrolo[2,3-b]pyridin-3-yl)pyrimidin-4-yl]amino]cyclohexyl]morpholine-4-carboxamide], the “Percent Survival” value (influenza [4]) was 75%, the “Percent Weight Loss (Day 8)” value (influenza [4]) was 27.0% and the IC50 ([1]; Influenza A virus, PR/8, MDCK, mean all, MDCK cells infected with A/PR/8/34, cell protection (CPE), read-out: IC50) was less than 5 µM. For the same compound, the EC50 ([3]; Influenza A virus, PR/8, MDCK, mean all, bDNA viral RNA in MDCK cells infected with A/PR/8/34, read-out: EC50) was less than 5 µM.

O=C(N[C@@H]1CCC[C@H](Nc2nc(-c3c[nH]c4ncc(F)cc34)ncc2F)C1)N1CCCC1 [Compound 895, N-((1R,3S)-3-(5-fluoro-2-(5-fluoro-1H-pyrrolo[2,3-b]pyridin-3-yl)-pyrimidin-4-ylamino)cyclohexyl)pyrrolidine-1-carboxamide] was tested, and the “Percent Survival” value (influenza [4]) was 100%, the “Percent Weight Loss (Day 8)” value (influenza [4]) was 12.8% and the IC50 ([1]; Influenza A virus, PR/8, MDCK, exemplary values in text, survival of A/PR/8/34 infected cells, read-out: IC50) was 0.0008 µM. It also gave an IC50 [1, 8] of less than 5 µM, an EC50 ([3]; Influenza A virus, PR/8, exemplary values in text, replication of A/PR/8/34 influenza virus, read-out: EC50) of 0.001 µM and an EC50 [3, 9] of less than 5 µM.

Compound “(1S,3R)—N1-(5-fluoro-2-(5-fluoro-1H-pyrrolo[2,3-b]pyridin-3-yl)pyrimidin-4-yl)-N3-(pyrazin-2-yl)cyclohexane-1,3-diamine [Compound 985]” has an IC50 ([1]; MDCK cells, A/PR/8/34, ATP readout, mean all, read-out: Cell Flu, MDCK protection, ATP (All: IC50: uM)(Mean (All))) of less than 5 µM and an EC50 ([3]; HA(−) 30 hr, A/PR/8, bDNA, mean all, read-out: Cell Influenza HA(−) 30 hr A/PR/8 bDNA:bDNA EC50 uM(Mean (All))) of less than 5 µM.

In the case of “(R)-methyl 2-(3-((2-(5-chloro-1H-pyrrolo[2,3-b]pyridin-3-yl)-5-fluoropyrimidin-4-ylamino)methyl)piperidine-1-carboxamido)ethanoate [Compound 125]”, the IC50 ([1]; read-out: IC50 (mean all)) is reported as less than 5 µM and the EC50 ([3]; read-out: EC50 (mean all)) is reported as less than 5 µM.

Compound “(R)—N-((1-(3-bromophenylsulfonyl)piperidin-3-yl)methyl)-2-(5-chloro-1H-pyrrolo[2,3-b]pyridin-3-yl)-5-fluoropyrimidin-4-amine [Compound 88]” has an IC50 ([1]; read-out: IC50 (mean all)) of less than 5 µM and an EC50 ([3]; read-out: EC50 (mean all)) of less than 5 µM.

“(R)—N-cyclopropyl-2-((5-fluoro-2-(1H-pyrrolo[2,3-b]pyridin-3-yl)pyrimidin-4-ylamino)-methyl)piperidine-1-carboxamide [Compound 372]” gave an IC50 ([1]; read-out: IC50) of 5 to 20 µM and an EC50 [3, 10] of 5 to 10 µM.

“(R)—N-tert-butyl-3-((2-(5-chloro-1H-pyrrolo[2,3-b]pyridin-3-yl)-5-fluoropyrimidin-4-ylamino)methyl)piperidine-1-carboxamide [Compound 117]” gave an IC50 ([1]; read-out: IC50 (mean all)) of less than 5 µM and an EC50 ([3]; read-out: EC50 (mean all)) of less than 5 µM.

Work on “N-[cis-2-[[5-fluoro-2-(1H-pyrrolo[2,3-b]pyridin-3-yl)pyrimidin-4-yl]amino]cyclohexyl]methanesulfonamide [Compound 337]” yielded an IC50 ([1]; read-out: IC50) of 5 to 20 µM and an EC50 [3, 10] of less than 5 µM.

Source: US8829007B2 (priority 2009, dated 2014)
